{"source": "paper PMC3948684", "about": "“Approaches to Improve the Oral Bioavailability and Effects of Novel Anticancer Drugs Berberine and Betulinic Acid” (PLoS ONE, 2014)", "key": {"[1]": {"tested_on": "cleaved caspase 3", "experiment": "IHC analysis of orthotopic lung tumor sections", "format": "in vivo, athymic Nu/nu mice", "conditions": "A549 tumors", "description": "(§1) Formalin fixed tumors were processed for automatic histopathological procedures. The detailed procedure was provided in Data S1 [30].\n(§2) C) IHC for cleaved caspase 3 and CD31: Formalin fixed tumors were processed for automatic histopathological procedures. The detailed procedure was provided in supplmmentary data (Supple). Tissue sections were dehydrated by immersing in increasing concentrations of alcohol and embedded in paraffin. Paraffin embedded specimens were cut into thin sections (4-5 µm). Tissue sections (4–5 μm thick) were mounted on poly-L-lysine–coated slides and sections were deparaffinized with xylene and rehydration through graded concentrations of alcohol, then incubated with 3% […] for 20 min to block endogenous peroxidase activity. Antigen retrieval for cleaved caspase 3 and CD31 staining was carried out for 10 min in 0.01 M sodium citrate buffer (pH 6), heated at 95°C in a steam bath followed by cooling for 30 min. Endogenous peroxidase was blocked by 3% hydrogen peroxide in PBS for 10 min. The slides were washed with PBS and incubated for 1h at room temperature with a protein blocking solution. […] Numbers of positive cells per filed was quantified by counting 10 different fields from each section. Based on the CD31 positive cells, microvessel density (MVD) was calculated (30)."}, "[2]": {"tested_on": "A549 orthotopic lung tumors", "experiment": "A549 orthotopic lung cancer model", "format": "in vivo, athymic Nu/nu mice", "conditions": "100 mg/kg orally daily for 3 weeks", "method": "A549 cells were grown in F12K Medium containing 10% FBS and standard antibiotic mix at 5% CO2 and 37°C. For orthotopic lung tumor model, mice were anesthetized with Isoflurane and a 5 mm skin incision was made to the left chest, 5 mm below the scapula. Hamilton syringes (1 ml) with 28-gauge hypodermic needles were used to inject the cell inoculums through the sixth intercostal space into the left lung. The needle was quickly advanced to a depth of 3 mm and quickly removed after the injection of the A549 cells (2 million/mouse) suspended in 100 µL PBS (pH 7.4) into the lung parenchyma. For metastatic lung tumor models H1650 cells (2 million in 100 µL PBS) were intravenously administered to mice via tail vein. […] Only cell suspensions of >95% viability as determined by tryphan blue exclusion were used. Wounds from the incisions were closed with surgical skin clips. […] Drug treatment was started 2 weeks after the tumor cell implantation. BBR free drug or SD formulation was given orally at the dose of 100 mg/kg daily for 3 weeks. […] Body weights were monitored throughout the study. Animal survival rates were recorded during the study. The lung weights and tumor volumes were used for assessment of therapeutic activity of the treatments. After sacrificing the animals lung weights and tumor nodules were recorded in metastatic tumor models."}, "[3]": {"tested_on": "CD31", "experiment": "IHC analysis of orthotopic lung tumor sections (microvessel density)", "format": "in vivo, athymic Nu/nu mice", "conditions": "A549 tumors; CD31 positive cells", "description": "as §1, §2"}, "[4]": {"tested_on": "cyclin D1", "experiment": "Western blot of orthotopic lung tumor lysates", "format": "in vivo, athymic Nu/nu mice", "conditions": "A549 tumors; densitometry", "method": "(§3) Western blot analysis was performed to study the expression of Bcl-2, cleaved caspase 3, survivin, cyclin D1, p53, MMP-9, HIF-1α. The detailed procedure was given as Data S1.\n(§4) B) Western blot analysis: western blot analysis was performed to study the expression of Bcl-2, cleaved caspase 3, survivin, cyclin D1, p53, MMP-9, HIF-1α. The detailed procedure was given in supplementary data. Protein was extracted from tumor tissues collected from untreated control and drug treated animals using RIPA lysis buffer (50mM Tris-HCL, pH 8.0, with 150 mM sodium chloride, 1.0% Igepal CA-630 (NP-40), 0.5% sodium deoxychlorate, and 0.1% sodium dodecyl sulfate) with protease inhibitor and 500 mM phenylmethylsulfonyl fluoride. Protein concentration was measured using BCA Protein Assay Reagent Kit (PIERCE, Rockford, IL). Equal amounts of supernatant protein (50 μg) was denatured by boiling for 5 min in SDS sample buffer, separated by 10% SDS-PAGE, transferred to nitrocellulose membranes for immunoblotting. Membranes were blocked with 5% skim milk in Tris-buffered saline with Tween 20 [10mM Tris-HCL (pH 7.6), 150 mM Nacl, and 0.5% Tween 20] and probed with antibodies against Bcl-2 (1:1000), cleaved caspase 3 (1:500), survivin (1:1000), cyclin D1(1:1000), p53 (1:1000), MMP-9 (1:1000), HIF-1α (1:1000) and β-actin (1:1000). Horseradish peroxidase-conjugated secondary antibodies (Santa Cruz Biotechnology, Santa Cruz, CA) were used. Proteins were visualized using enhanced chemiluminescent solution (Pierce, Rockford, IL) and exposed to Kodak X-OMAT AR autoradiography film (Eastman Kodak, Rochester, NY)."}, "[5]": {"tested_on": "p53", "experiment": "Western blot of orthotopic lung tumor lysates", "format": "in vivo, athymic Nu/nu mice", "conditions": "A549 tumors; densitometry", "method": "as §3, §4"}, "[6]": {"tested_on": "survivin", "experiment": "Western blot of orthotopic lung tumor lysates", "format": "in vivo, athymic Nu/nu mice", "conditions": "A549 tumors; densitometry", "method": "as §3, §4"}, "[7]": {"tested_on": "HIF-1α", "experiment": "Western blot of orthotopic lung tumor lysates", "format": "in vivo, athymic Nu/nu mice", "conditions": "A549 tumors", "method": "as §3, §4"}, "[8]": {"tested_on": "Bcl-2", "experiment": "Western blot of orthotopic lung tumor lysates", "format": "in vivo, athymic Nu/nu mice", "conditions": "A549 tumors; densitometry", "method": "as §3, §4"}, "[9]": {"experiment": "In vitro Caco-2 permeability study", "conditions": "human, Caco-2, pH 5.8", "protocol": "Caco-2 cells (passage #29) were cultured at 37°C with culture medium replaced every 2 days in an atmosphere of 5% CO2 and 95% relative humidity. Cells were harvested upon reaching approximately 80-90% confluence with 0.25% trypsin–EDTA. Cells were grown on 1.12 cm^2 0.4 μm pore polycarbonate membrane inserts in 12 mm × 12 transwell permeable support plates (Corning, NY, USA). Caco-2 cells were seeded onto membranes at 50,000 cells/well. Individual wells received 1.5 mL of culture medium at the bottom and 0.5 mL of medium was added to the top of inserts which was changed on alternate days. Confluent monolayers were used for permeability studies at ~21 days post seeding. Transepithelial electrical resistance (TEER) of Caco-2 monolayers was measured prior to all experiments using the EVOM volt-ohm-meter (Millicell-ERS; Millipore, USA) to ensure monolayer integrity. The TEER (Ω·cm^2) values of the cell monolayers were determined by the resistance (Ω) × effective membrane area (cm^2). TEER values were measured across each cell monolayer prior to beginning the experimentation and at the last sample collection time point. Transport studies were initiated by removing culture medium from the apical (A) and basolateral (B) sides of the cell monolayer. […] The effective permeability (Peff) (cm/s) was determined using Eq. 1: […]"}, "[10]": {"set-up": "method as in PMID 17531424", "conditions": "single oral dose of 400 mg ref 20; cited from earlier work"}, "[11]": {"experiment": "In vitro drug release of BBR (USP type II paddle)", "format": "physicochemical", "conditions": "after 5 h; PBS pH 5.8 with 1% volpo, 37°C", "method": "In vitro drug release study was conducted in PBS (pH 5.8) containing 1% volpo. Briefly, 50 mg of free drug or equivalent amount of SD form of BBR and BA were dispersed in 500 ml of release medium and the drug release profile was studied at pH 5.8. Release studies were performed according to the USP type II paddle method, at 37±0.5°C while stirring constantly at 50 rpm. Samples were withdrawn at different time points, centrifuged and drug content in the samples was analyzed by spectrometric method of analysis. The withdrawn samples were replaced by equal volumes of fresh medium maintained at the same temperature. Except replacing the 1% Volpo with 2.5% SLS, similar conditions were maintained for the in vitro drug release studies of BA in free drug and SD forms. The released BA concentrations were measured by established HPLC method."}}, "data": [{"smiles": "COc1ccc2cc3[n+](cc2c1OC)CCc1cc2c(cc1-3)OCO2.[Cl-]", "note": "[BBR free drug, 5,6-dihydro-9,10-dimethoxy-benzo[g]-1,3-benzodioxolo[5,6-a]quinolizinium, chloride]", "values": [{"measurement": "number of cleaved caspase 3 positive apoptotic cells, higher compared to control", "setting": "[1]", "value": 4.20, "unit": "fold"}, {"measurement": "decrease in tumor volumes compared to untreated control", "setting": "[2]", "value": 1.31, "unit": "fold"}, {"measurement": "lung tumor weights", "setting": "[2]", "value": "385.77 ± 63.42", "unit": "mg"}, {"measurement": "reduced tumor weights compared to control tumors", "setting": "[2]", "value": 1.40, "unit": "fold"}, {"measurement": "microvessel density (MVD) reduced compared to untreated control tumors", "setting": "[3]", "value": 1.44, "unit": "fold"}, {"measurement": "cyclin D1 relative expression reduced compared to untreated control", "setting": "[4]", "value": 1.02, "unit": "fold"}, {"measurement": "relative expression of p53 increased compared to untreated control", "setting": "[5]", "value": 2.51, "unit": "fold"}, {"measurement": "survivin expression down regulated compared to control", "setting": "[6]", "value": 2.03, "unit": "fold"}, {"measurement": "HIF-1α expression", "setting": "[7]", "value": "significantly down regulated"}, {"measurement": "beta actin relative Bcl-2 expression reduced compared to untreated control", "setting": "[8]", "value": 2.79, "unit": "fold"}, {"measurement": "Papp A→B at 120 min, 100 µM", "setting": "[9]", "value": "~0.29", "unit": "×10⁻⁶ cm/s"}, {"measurement": "Cmax in human plasma", "setting": "[10]", "value": 0.4, "unit": "ng/mL"}, {"measurement": "percent of BBR released", "setting": "[11]", "value": "Approximately 100%"}]}]}
